Read-outs that look alike come from different tables or passages of the source.
Legend:
[1] = tested on: spinal nerve ligation model of neuropathic pain; conditions: rats; Dogrul et al., Pain (2003); cited from earlier work
[2] = target: T1, human α1G T-type channels (Homo sapiens, UniProt O43497); experiment: T-type calcium channel block, whole cell patch clamp in HEK cells (α1G); format: cell-based; conditions: HEK cells, patch clamp, mainly non-inactivated protocol; values above 10 μM shown as 10 μM, below 0.30 μM shown as 0.30 μM; read-out: T-type Calcium Channel Block α1G IC50
T1 construct: expressed in transfected cells; host or cells: HEK 293
T1 sequence (O43497 whole entry): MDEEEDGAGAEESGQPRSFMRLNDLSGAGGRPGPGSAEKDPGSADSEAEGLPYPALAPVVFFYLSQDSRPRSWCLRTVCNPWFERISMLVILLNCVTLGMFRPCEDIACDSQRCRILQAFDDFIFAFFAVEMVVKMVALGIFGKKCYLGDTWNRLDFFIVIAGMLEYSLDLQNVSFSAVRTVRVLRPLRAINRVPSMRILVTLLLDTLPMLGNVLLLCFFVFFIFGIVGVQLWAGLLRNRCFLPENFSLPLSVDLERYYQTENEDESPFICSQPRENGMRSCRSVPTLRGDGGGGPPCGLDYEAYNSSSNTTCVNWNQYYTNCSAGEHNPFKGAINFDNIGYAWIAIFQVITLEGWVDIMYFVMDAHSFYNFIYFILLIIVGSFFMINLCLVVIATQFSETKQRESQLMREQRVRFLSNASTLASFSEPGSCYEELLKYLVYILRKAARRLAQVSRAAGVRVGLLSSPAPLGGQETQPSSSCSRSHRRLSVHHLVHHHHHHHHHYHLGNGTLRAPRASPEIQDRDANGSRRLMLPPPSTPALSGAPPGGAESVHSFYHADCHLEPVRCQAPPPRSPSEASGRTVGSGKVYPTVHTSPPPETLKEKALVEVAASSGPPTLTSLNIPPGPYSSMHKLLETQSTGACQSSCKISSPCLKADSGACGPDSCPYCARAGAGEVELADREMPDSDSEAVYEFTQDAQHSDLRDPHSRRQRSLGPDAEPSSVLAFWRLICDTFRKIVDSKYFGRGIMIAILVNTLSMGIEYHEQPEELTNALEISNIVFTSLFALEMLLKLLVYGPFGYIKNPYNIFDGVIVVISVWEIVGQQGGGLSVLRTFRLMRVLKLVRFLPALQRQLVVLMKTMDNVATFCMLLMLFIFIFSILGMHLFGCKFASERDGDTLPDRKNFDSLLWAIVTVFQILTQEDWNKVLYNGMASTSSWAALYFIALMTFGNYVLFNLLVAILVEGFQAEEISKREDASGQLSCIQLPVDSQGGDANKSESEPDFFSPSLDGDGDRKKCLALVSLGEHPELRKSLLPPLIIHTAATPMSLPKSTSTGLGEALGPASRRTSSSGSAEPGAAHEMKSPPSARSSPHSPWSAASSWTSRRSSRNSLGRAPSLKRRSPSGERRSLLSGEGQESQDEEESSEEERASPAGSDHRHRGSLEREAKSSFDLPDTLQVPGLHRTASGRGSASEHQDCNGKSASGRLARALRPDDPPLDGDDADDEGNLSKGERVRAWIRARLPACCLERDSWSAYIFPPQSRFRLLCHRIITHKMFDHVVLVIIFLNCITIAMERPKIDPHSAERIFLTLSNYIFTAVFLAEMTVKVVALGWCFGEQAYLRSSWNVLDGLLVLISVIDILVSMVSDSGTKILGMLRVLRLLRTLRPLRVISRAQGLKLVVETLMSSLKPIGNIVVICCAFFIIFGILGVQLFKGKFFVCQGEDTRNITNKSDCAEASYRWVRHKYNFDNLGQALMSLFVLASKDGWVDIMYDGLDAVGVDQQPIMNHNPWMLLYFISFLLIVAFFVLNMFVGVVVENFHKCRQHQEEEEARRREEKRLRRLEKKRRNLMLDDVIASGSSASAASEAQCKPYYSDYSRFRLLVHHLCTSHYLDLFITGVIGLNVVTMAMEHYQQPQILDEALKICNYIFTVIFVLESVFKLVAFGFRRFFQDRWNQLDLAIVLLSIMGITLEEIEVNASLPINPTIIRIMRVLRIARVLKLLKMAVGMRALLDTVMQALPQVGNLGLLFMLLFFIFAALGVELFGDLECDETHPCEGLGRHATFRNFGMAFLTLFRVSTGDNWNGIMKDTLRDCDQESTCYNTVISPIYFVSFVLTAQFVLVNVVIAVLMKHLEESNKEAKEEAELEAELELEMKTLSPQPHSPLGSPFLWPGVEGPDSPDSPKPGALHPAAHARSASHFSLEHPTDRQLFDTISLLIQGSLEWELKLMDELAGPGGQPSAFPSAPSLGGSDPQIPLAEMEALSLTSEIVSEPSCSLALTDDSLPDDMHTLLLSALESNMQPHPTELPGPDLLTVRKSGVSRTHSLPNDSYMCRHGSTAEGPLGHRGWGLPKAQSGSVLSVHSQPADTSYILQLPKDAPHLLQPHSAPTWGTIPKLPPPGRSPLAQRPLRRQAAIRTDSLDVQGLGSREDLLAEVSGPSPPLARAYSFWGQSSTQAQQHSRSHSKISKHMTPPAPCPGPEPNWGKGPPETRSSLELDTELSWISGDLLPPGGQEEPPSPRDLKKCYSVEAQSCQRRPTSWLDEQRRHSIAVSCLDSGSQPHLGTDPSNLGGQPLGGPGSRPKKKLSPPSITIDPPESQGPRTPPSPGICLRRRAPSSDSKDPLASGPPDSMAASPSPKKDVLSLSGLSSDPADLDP

[3] = target: T2, human α1H T-type channels (Homo sapiens, UniProt O95180); experiment: T-type calcium channel block, whole cell patch clamp in HEK cells (α1H); format: cell-based; conditions: HEK cells, patch clamp, mainly non-inactivated protocol; values above 10 μM shown as 10 μM; read-out: T-type Calcium Channel Block α1H IC50
T2 construct: expressed in transfected cells; host or cells: HEK 293
T2 sequence (O95180 whole entry): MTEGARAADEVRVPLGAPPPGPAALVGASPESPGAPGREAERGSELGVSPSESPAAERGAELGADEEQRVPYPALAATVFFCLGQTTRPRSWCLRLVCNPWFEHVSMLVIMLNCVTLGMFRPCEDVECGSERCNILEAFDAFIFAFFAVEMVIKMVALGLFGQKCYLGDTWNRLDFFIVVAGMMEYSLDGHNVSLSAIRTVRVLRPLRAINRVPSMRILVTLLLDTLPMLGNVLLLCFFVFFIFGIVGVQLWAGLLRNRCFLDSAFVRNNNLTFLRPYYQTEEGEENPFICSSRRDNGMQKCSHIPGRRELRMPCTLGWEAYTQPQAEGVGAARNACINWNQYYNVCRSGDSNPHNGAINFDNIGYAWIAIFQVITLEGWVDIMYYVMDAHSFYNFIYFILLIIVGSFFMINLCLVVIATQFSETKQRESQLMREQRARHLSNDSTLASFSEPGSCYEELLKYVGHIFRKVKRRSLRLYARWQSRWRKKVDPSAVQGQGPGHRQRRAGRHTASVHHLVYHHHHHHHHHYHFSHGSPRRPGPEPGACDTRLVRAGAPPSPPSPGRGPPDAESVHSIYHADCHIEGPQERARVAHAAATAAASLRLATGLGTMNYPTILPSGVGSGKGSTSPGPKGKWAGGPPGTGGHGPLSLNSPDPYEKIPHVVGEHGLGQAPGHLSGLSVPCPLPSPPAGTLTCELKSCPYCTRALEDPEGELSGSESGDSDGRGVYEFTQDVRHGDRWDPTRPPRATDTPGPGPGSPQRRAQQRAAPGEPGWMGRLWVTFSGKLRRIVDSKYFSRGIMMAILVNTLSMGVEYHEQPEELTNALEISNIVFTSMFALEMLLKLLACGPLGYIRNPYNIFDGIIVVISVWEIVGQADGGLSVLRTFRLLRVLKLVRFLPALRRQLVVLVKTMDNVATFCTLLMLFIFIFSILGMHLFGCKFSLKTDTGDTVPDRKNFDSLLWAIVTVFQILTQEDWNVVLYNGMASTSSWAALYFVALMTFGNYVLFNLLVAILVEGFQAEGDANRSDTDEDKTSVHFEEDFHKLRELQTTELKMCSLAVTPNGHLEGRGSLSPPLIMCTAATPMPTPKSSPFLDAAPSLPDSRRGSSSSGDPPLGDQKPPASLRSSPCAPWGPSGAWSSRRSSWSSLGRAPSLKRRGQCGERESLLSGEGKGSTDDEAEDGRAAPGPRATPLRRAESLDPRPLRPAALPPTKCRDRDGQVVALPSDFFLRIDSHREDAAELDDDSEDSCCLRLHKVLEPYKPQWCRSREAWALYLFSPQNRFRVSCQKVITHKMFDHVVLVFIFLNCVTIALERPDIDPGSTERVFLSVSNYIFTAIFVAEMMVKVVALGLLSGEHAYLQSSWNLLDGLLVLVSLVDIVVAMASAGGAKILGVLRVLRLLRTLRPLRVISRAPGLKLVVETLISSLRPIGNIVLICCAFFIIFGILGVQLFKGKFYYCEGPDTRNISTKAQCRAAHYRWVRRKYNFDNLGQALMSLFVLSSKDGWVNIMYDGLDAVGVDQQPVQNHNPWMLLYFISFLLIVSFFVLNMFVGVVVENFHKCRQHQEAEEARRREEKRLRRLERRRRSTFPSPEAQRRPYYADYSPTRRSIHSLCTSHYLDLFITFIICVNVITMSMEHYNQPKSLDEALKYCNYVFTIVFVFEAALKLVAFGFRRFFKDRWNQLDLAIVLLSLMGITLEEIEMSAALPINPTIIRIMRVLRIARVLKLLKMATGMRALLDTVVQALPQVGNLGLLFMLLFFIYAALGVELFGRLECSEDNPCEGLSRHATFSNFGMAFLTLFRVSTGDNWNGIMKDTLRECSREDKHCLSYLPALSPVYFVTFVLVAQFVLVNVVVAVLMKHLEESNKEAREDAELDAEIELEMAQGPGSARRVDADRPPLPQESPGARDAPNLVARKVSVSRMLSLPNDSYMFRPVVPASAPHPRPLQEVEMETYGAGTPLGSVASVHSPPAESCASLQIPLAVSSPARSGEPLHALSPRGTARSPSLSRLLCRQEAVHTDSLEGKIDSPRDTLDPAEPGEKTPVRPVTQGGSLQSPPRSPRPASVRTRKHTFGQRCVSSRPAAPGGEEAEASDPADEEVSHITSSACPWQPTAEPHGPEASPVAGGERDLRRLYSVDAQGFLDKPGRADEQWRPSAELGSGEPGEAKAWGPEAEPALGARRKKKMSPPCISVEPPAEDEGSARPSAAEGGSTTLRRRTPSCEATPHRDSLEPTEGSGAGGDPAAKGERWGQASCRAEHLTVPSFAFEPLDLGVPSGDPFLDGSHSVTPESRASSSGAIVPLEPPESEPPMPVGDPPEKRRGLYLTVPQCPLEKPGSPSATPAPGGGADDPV

hERG K+ channel = hERG K+ channel (Homo sapiens, UniProt Q12809); experiment: hERG K+ Channel Block; format: cell-based
[4] = tested on: absence seizures in GAERS rats; experiment: GAERS (Genetic Absence Epilepsy Rats from Strasbourg) epilepsy model, EEG spike and wave discharges; format: in vivo, rat; conditions: for Percent Recording Time in Seizure Activity, Baseline: 60 minutes pre-injection EEG recording; for Percent Recording Time in Seizure Activity, Post-injection / percentage of time in seizure activity compared to both baseline and vehicle: IP 30 mg/kg; for Percent Recording Time in Seizure Activity, Post-injection: 120 minutes post-injection EEG recording starting 15 minutes post-drug
Description: The GAERS (Genetic Absence Epilepsy Rats from Strasbourg) is noted for its long and frequently recurring absence seizure episodes. […] Eight female GAERS rats, bred in the Ludwig Institute for Cancer Research, were used for this study. Rats weighed between 180 and 250 g and aged between 18 and 26 weeks at the start of the experiment.
Electrodes were made in our laboratory by soldering together gold-plated sockets (220-S02 Ginder Scientific, VA, Canada), stainless steel teflon coated wire (SDR clinical technology, NSW, Australia) and a small stainless steel screw (1.4×3 mm, Mr. Specks, Australia). Animals were anaethetised with inhalation of Isoflurane in equal parts of medical air and oxygen (5% induction, 2.5-1.5% maintenance) or alternatively by intraperitoneal injection with xylazine (10 mg/kg) and ketamine (75 mg/kg). The animals were fixated in a stereotaxic frame by means of ear bars. A midline incision on the scalp was made, skin and connective tissue was scraped and pushed laterally to expose underlying skull. 6 holes were drilled bilaterally, 2 in the frontal bone and 4 in the parietal bone, approximately 2 mm anterior to bregma, and 4 and 10 mm posterior to bregma. 6 electrodes were implanted in the holes, and gold-plated sockets were clipped into 9-pin ABS plug (GS09PLG-220, Ginder Scientific, Canada). 2 two side-anchoring screws were placed laterally into skull to improve strength of cap fixation, then caps were held in place with dental cement.
Post-operatively, animals were given the analgesic Rimadyl (4 mg/kg), placed in their cages on a heat mat, and observed until recovery. Rats were caged separately throughout the study, weighed and health-checked daily, and were allowed 7 days to recover prior to commencement of the experimental procedures. Rats were allowed free access to rodent chow (brand, WA stock feeders) and water under 12:12 light dark conditions in the Biological Research Facility of the Department of Medicine (RMH).
Prior to first drug treatment, rats were tested for absence-type seizures, which are accompanied by generalised spike and wave discharges (SWD) on an EEG recording. Testing, and all further experiments were performed in a quiet, well lit room with rats in their home cages. Rats were connected via 6-channel wire cables, which were cut and soldered to 6 gold-plated pins inserted into a 9 pin socket. Cables were connected to a computer running Compumedics™ EEG acquisition software (Melbourne, Australia). […] On week 1, day 1 after the acclimation period following surgical implantation of subdural electrodes, 4 animals (#1-4) were habituated with the cable connected for 15 minutes, then had their SWDs recorded for 60 minutes as baseline. Immediately following baseline, rats were given one of the test, reference or control articles according to the treatment schedule, and target period was recorded from 15 after injection for 120 minutes. Animals were monitored throughout the experiment, and were kept quietly wakeful during baseline and target periods
The seizure expression for the 60 minutes pre-injection and 120 minutes post-injection EEG recording (starting 15 minutes post-drug administration) was quantified by marking the start and finish of the burst of SWDs. This was done with the assistance of SWCFinder® software which has been custom designed to quantitate GAERS seizures, and researchers were blinded to the nature of the drug administered, whereby the analysis was performed blinded. Standard criteria for GAERS seizures is an SWD burst of amplitude of more than three times baseline, a frequency of 7 to 12 Hz, and a duration of longer than 0.5 s. From this, the total percent time spent in seizure over the 120 minutes post-injection EEG recording was determined (percentage time in seizure) as the primary outcome variable.

Row | IC50 [2] [nM] | IC50 [3] [nM] | SMILES | anti-hyperalgesic activity in the spinal nerve ligation model of neuropathic pain [1] | IC50 (hERG K+ channel; human) [nM] | Percent Recording Time in Seizure Activity, Baseline [4] [%] | Percent Recording Time in Seizure Activity, Post-injection [4] [%] | percentage of time in seizure activity compared to both baseline and vehicle [4] | IC50 (hERG K+ channel) [nM]
1 |  |  | COCC(=O)O[C@]1(CCN(C)CCCc2nc3ccccc3[nH]2)CCc2cc(F)ccc2[C@@H]1C(C)C [mibefradil] | anti-hyperalgesic activity |  |  |  |  | 
2 | < 300 | 230 | CC(C)(C)NC(=O)CN1CCC(CNC(=O)c2cccc(Cl)c2)CC1 [Compound 364, N-((1-(2-(tert-buylamino)-2-oxoethyl)piperidin-4-yl)methyl)-3-chlorobenzamide] |  | ≥ 8300 | 12.12 ± 1.82 | 0.45 ± 0.20 |  | 
3 | < 300 | 170 | COc1cc(OC)cc(C(=O)NCC2CCN(CC(=O)NC(C)(C)C)CC2)c1 [Compound 368, N-((1-(2-(tert-butylamino)-2-oxoethyl)piperidin-4-yl)methyl)-3,5-dimethoxybenzamide] |  | ≥ 8300 |  |  | significant decrease | 
4 |  |  | CCC1(C)CC(=O)NC1=O (stereo not shown) [ethosuximide] | anti-hyperalgesic activity |  |  |  |  | 
5 | < 300 | 50 | CC(C)(C)NC(=O)CN1CCC(CNC(=O)c2cc(F)cc(Cl)c2)CC1 [Compound 367, N-((1-(2-(tert-butylamino)-2-oxoethyl)piperidin-4-yl)methyl)-3-chloro-5-fluorobenzamide] |  | ≥ 8300 | 9.99 ± 2.07 | 0.87 ± 0.44 |  | 
6 | < 300 | 70 | O=C(NCC1CCN(CC(=O)N2CCC[C@H]2C(F)(F)F)CC1)c1cc(F)cc(Cl)c1 [Compound 470, (S)-3-chloro-5-fluoro-N-((1-(2-oxo-2-(2-(trifluoromethyl)pyrrolidin-1-yl)ethyl)piperidin-4-yl)methyl)benzamide] |  |  |  |  |  | 2600
7 | 800 | 560 | CC(C)(C)NC(=O)CN1CCC(CNC(=O)c2cc(F)cc(F)c2)CC1 [Compound 365, N-((1-(2-(tert-butylamino)-2-oxoethyl)piperidin-4-yl)methyl)-3,5-difluorobenzamide] |  |  |  |  | significant decrease | 
8 | < 300 | 200 | CC(C)(C)S(=O)(=O)NCCN1CCC(CNC(=O)c2cccc(OC(F)(F)F)c2)CC1 [Compound 574, N-((1-(2-(1,1-dimetylethylsulfonamido)ethyl)piperidin-4-yl)methyl)-3-(trifluoromethoxy)benzamide] |  |  |  |  |  | 4100
9 | < 300 | 450 | COc1cc(F)cc(C(=O)NCC2CCN(CCNS(=O)(=O)C(C)(C)C)CC2)c1 [Compound 577, N-((1-(2-(1,1-dimethylethylsulfonamido)ethyl)piperidin-4-yl)methyl)-3-fluoro-5-methoxybenzamide] |  | ≥ 17000 |  |  |  | 
10 | < 300 | 80 | CC1(NC(=O)CN2CCC(CNC(=O)c3cc(F)cc(Cl)c3)CC2)CCC1 [Compound 482, 3-chloro-5-fluoro-N-((1-(2-(1-methylcyclobutylamino)-2-oxoethyl)piperidin-4-yl)methyl) benzamide] |  |  |  |  |  | 7900
11 | 20 | 500 | CS(=O)(=O)NC1(CN2CCC(CC(=O)Nc3cc(C(F)(F)F)cc(C(F)(F)F)c3)CC2)CCCC1 [Compound 160, N-(3,5-bis(trifluoromethyl)phenyl)-2-(1-((1-(methylsulfonamido)cyclopentyl)methyl)piperidin-4-yl)acetamide] |  |  |  |  |  | 190
12 | < 300 | 220 | CC(C)(C)C(=O)NCCN1CCC(CC(=O)Nc2cc(C(F)(F)F)cc(C(F)(F)F)c2)CC1 [Compound 334, N-(2-(4-(2-(3,5-bis(trifluoromethyl)phenylamino)-2-oxoethyl)piperidin-1-yl)ethyl)pivalamide] |  |  |  |  |  | 920
13 | 580 | 410 | CN(C(=O)CN1CCC(CNC(=O)c2cccc(Cl)c2)CC1)C(C)(C)C [Compound 543, N-((1-(2-(tert-butyl(methyl)amino)-2-oxoethyl)piperidin-4-yl)methyl)-3-chlorobenzamide] |  |  |  |  |  | 5200
14 | < 300 | 60 | COCC(C)(C)NC(=O)CN1CCC(CNC(=O)c2cc(F)cc(Cl)c2)CC1 [Compound 538, 3-chloro-5-fluoro-N-((1-(2-(1-methoxy-2-methylpropan-2-ylamino)-2-oxoethyl)piperidin-4-yl)methyl)benzamide] |  |  |  |  |  | 13000
15 | < 300 | 70 | COc1cc(Cl)cc(C(=O)NCC2CCN(CCNC(=O)C3(C(F)(F)F)CC3)CC2)c1 [Compound 590, 3-chloro-5-methoxy-N-((1-(2-(1-(trifluoromethyl)cyclopropanecarbox-amido)ethyl)piperidin-4-yl)methyl) benzamide] |  |  |  |  |  | 2200
16 | < 300 | 80 | O=C(CN1CCC(CNC(=O)c2cc(F)cc(Cl)c2)CC1)NC1CCCC1 [Compound 531, 3-chloro-N-((1-(2-(cyclopentylamino)-2-oxoethyl)piperidin-4-yl)methyl)-5-fluorobenzamide] |  |  |  |  |  | 2400
17 | 2470 | 360 | CC(C)(C)[S+]([O-])NCCN1CCC(CNC(=O)c2cc(F)cc(C(F)(F)F)c2)CC1 (stereo not shown) [Compound 537, N-((1-(2-(1,1-dimethylethylsulfinamido)ethyl)piperidin-4-yl)methyl)-3-fluoro-5-(trifluoromethyl)benzamide] |  | ≥ 17000 |  |  |  | 
18 | < 300 | 60 | COc1cc(F)cc(C(=O)NCC2CCN(CC(=O)NC3(C)CCC3)CC2)c1 [Compound 477, 3-fluoro-5-methoxy-N-((1-(2-(1-methylcyclobutylamino)-2-oxoethyl)piperidin-4-yl)methyl) benzamide] |  | ≥ 16600 |  |  |  | 
19 | < 300 | 120 | O=C(NCC1CCN(CCNC(=O)C2(C(F)(F)F)CC2)CC1)c1cccc(Br)c1 [Compound 501, 3-bromo-N-((1-(2-(1-(trifluoromethyl)cyclopropanecarbox-amido)ethyl)piperidin-4-yl)methyl) benzamide] |  |  |  |  |  | 5600

— US8569344B2, “N-piperidinyl acetamide derivatives as calcium channel blockers” (Zalicus Pharmaceuticals Ltd., priority 2008, dated 2013)
